System: C. difficile
Test: in vitro gut digestion and fermentation model (SHIME PathoGut) assessing CDI and CDI recurrence
Type: cell-based, Clostridium difficile
Conditions: control experiments (FIGS. 1 and 2); vancomycin 125 mg/L three times per day for seven days after the 4 weeks of CDI

SMILES: CN[C@H](CC(C)C)C(=O)N[C@H]1C(=O)N[C@@H](CC(N)=O)C(=O)N[C@H]2C(=O)N[C@H]3C(=O)N[C@H](C(=O)N[C@H](C(=O)O)c4cc(O)cc(O)c4-c4cc3ccc4O)[C@H](O)c3ccc(c(Cl)c3)Oc3cc2cc(c3O[C@@H]2O[C@H](CO)[C@@H](O)[C@H](O)[C@H]2O[C@H]2C[C@](C)(N)[C@H](O)[C@H](C)O2)Oc2ccc(cc2Cl)[C@H]1O [vancomycin]
- CD cell count: below detectable levels

Reference: patent US20220395542A1, “Nutritional Compositions for Treating a Clostridium Difficile Infection” (ABBOTT LABORATORIES, priority 2019, published 2022)
